Reference: ChEMBL document CHEMBL3525998, “Metabolism of saikosaponin a in rats: diverse oxidations on the aglycone moiety in liver and intestine in addition to hydrolysis of glycosidic bonds” (Drug Metab Dispos, 2013)

Columns and labels:
Assay type in all cases: ADME, organism-based; call rule not given here
[1] = Drug excretion in Sprague-Dawley rat bile at 15 mg/kg, iv by LC-DAD-IT-TOF-MS analysis; set-up: dose 15 mg/kg, route intravenous; details: in vivo
[2] = Drug excretion in Sprague-Dawley rat bile assessed as metabolite saikogenin f-27-oic acid level at 50 mg/kg, po administered through gavage by LC-DAD-IT-TOF-MS analysis; set-up: dose 50 mg/kg, route oral; details: in vivo
[3] = Drug excretion in Sprague-Dawley rat feces assessed as metabolite saikogenin f-27-oic acid level at 50 mg/kg, po administered through gavage by LC-DAD-IT-TOF-MS analysis; set-up: dose 50 mg/kg, route oral; details: in vivo
[4] = Drug excretion in Sprague-Dawley rat bile assessed as metabolite hydroxysaikosaponin a level at 50 mg/kg, po administered through gavage by LC-DAD-IT-TOF-MS analysis; set-up: dose 50 mg/kg, route oral; details: in vivo
[5] = Drug excretion in Sprague-Dawley rat feces at 50 mg/kg, po administered through gavage by LC-DAD-IT-TOF-MS analysis; set-up: dose 50 mg/kg, route oral; details: in vivo
[6] = system: Plasma; test: Drug metabolism in Sprague-Dawley rat plasma assessed as metabolite saikogenin f formation at 50 mg/kg, po administered through gavage by LC-DAD-IT-TOF-MS analysis; set-up: dose 50 mg/kg, route oral; details: in vivo
[7] = Drug excretion in Sprague-Dawley rat feces assessed as metabolite saikogenin f level at 15 mg/kg, iv by LC-DAD-IT-TOF-MS analysis; set-up: dose 15 mg/kg, route intravenous; details: in vivo
[8] = Drug excretion in Sprague-Dawley rat urine assessed as metabolite saikogenin f-27-oic acid level at 15 mg/kg, iv by LC-DAD-IT-TOF-MS analysis; set-up: dose 15 mg/kg, route intravenous; details: in vivo
[9] = Drug excretion in Sprague-Dawley rat urine at 15 mg/kg, iv by LC-DAD-IT-TOF-MS analysis; set-up: dose 15 mg/kg, route intravenous; details: in vivo
[10] = Drug excretion in Sprague-Dawley rat bile assessed as metabolite prosaikogenin f level at 15 mg/kg, iv by LC-DAD-IT-TOF-MS analysis; set-up: dose 15 mg/kg, route intravenous; details: in vivo
[11] = system: Plasma; test: Drug metabolism in Sprague-Dawley rat plasma assessed as metabolite delta1-saikogenin f formation at 15 mg/kg, iv by LC-DAD-IT-TOF-MS analysis; set-up: dose 15 mg/kg, route intravenous; details: in vivo
[12] = system: Plasma; test: Drug metabolism in Sprague-Dawley rat plasma assessed as metabolite prosaikogenin f formation at 15 mg/kg, iv by LC-DAD-IT-TOF-MS analysis; set-up: dose 15 mg/kg, route intravenous; details: in vivo
[13] = Drug excretion in Sprague-Dawley rat bile at 50 mg/kg, po administered through gavage by LC-DAD-IT-TOF-MS analysis; set-up: dose 50 mg/kg, route oral; details: in vivo
[14] = species: Rattus norvegicus; test: Drug metabolism in Sprague-Dawley rat assessed as retention time by LC-DAD-IT-TOF-MS analysis
[15] = system: Plasma; test: Drug uptake in Sprague-Dawley rat plasma at 15 mg/kg, iv by LC-DAD-IT-TOF-MS analysis; set-up: dose 15 mg/kg, route intravenous; details: in vivo
[16] = Drug excretion in Sprague-Dawley rat bile assessed as metabolite delta1-saikogenin f level at 15 mg/kg, iv by LC-DAD-IT-TOF-MS analysis; set-up: dose 15 mg/kg, route intravenous; details: in vivo
[17] = Drug excretion in Sprague-Dawley rat feces assessed as metabolite saikogenin f level at 50 mg/kg, po administered through gavage by LC-DAD-IT-TOF-MS analysis; set-up: dose 50 mg/kg, route oral; details: in vivo
[18] = Drug excretion in Sprague-Dawley rat bile assessed as metabolite hydroxysaikosaponin a level at 15 mg/kg, iv by LC-DAD-IT-TOF-MS analysis; set-up: dose 15 mg/kg, route intravenous; details: in vivo
[19] = Drug excretion in Sprague-Dawley rat bile assessed as metabolite saikogenin f-27-oic acid level at 15 mg/kg, iv by LC-DAD-IT-TOF-MS analysis; set-up: dose 15 mg/kg, route intravenous; details: in vivo
[20] = Drug excretion in Sprague-Dawley rat urine assessed as metabolite saikogenin f-27-oic acid level at 50 mg/kg, po administered through gavage by LC-DAD-IT-TOF-MS analysis; set-up: dose 50 mg/kg, route oral; details: in vivo
[21] = Drug excretion in Sprague-Dawley rat urine assessed as metabolite delta1-saikogenin f level at 15 mg/kg, iv by LC-DAD-IT-TOF-MS analysis; set-up: dose 15 mg/kg, route intravenous; details: in vivo
[22] = Drug excretion in Sprague-Dawley rat bile assessed as metabolite saikogenin f level at 15 mg/kg, iv by LC-DAD-IT-TOF-MS analysis; set-up: dose 15 mg/kg, route intravenous; details: in vivo
[23] = Drug excretion in Sprague-Dawley rat bile assessed as metabolite delta1-saikogenin f level at 50 mg/kg, po administered through gavage by LC-DAD-IT-TOF-MS analysis; set-up: dose 50 mg/kg, route oral; details: in vivo
[24] = Drug excretion in Sprague-Dawley rat urine assessed as metabolite 3-keto-saikogenin f level at 15 mg/kg, iv by LC-DAD-IT-TOF-MS analysis; set-up: dose 15 mg/kg, route intravenous; details: in vivo
[25] = Drug excretion in Sprague-Dawley rat urine assessed as metabolite saikogenin f level at 50 mg/kg, po administered through gavage by LC-DAD-IT-TOF-MS analysis; set-up: dose 50 mg/kg, route oral; details: in vivo
[26] = Drug excretion in Sprague-Dawley rat bile assessed as metabolite saikogenin f level at 50 mg/kg, po administered through gavage by LC-DAD-IT-TOF-MS analysis; set-up: dose 50 mg/kg, route oral; details: in vivo
[27] = Drug excretion in Sprague-Dawley rat bile assessed as metabolite prosaikogenin f level at 50 mg/kg, po administered through gavage by LC-DAD-IT-TOF-MS analysis; set-up: dose 50 mg/kg, route oral; details: in vivo
[28] = Drug excretion in Sprague-Dawley rat feces assessed as metabolite saikogenin f-27-oic acid level at 15 mg/kg, iv by LC-DAD-IT-TOF-MS analysis; set-up: dose 15 mg/kg, route intravenous; details: in vivo
[29] = system: Plasma; test: Drug uptake in Sprague-Dawley rat plasma at 50 mg/kg, po administered through gavage by LC-DAD-IT-TOF-MS analysis; set-up: dose 50 mg/kg, route oral; details: in vivo
[30] = system: Plasma; test: Drug metabolism in Sprague-Dawley rat plasma assessed as metabolite delta1-saikogenin f formation at 50 mg/kg, po administered through gavage by LC-DAD-IT-TOF-MS analysis; set-up: dose 50 mg/kg, route oral; details: in vivo
[31] = Drug excretion in Sprague-Dawley rat urine assessed as metabolite prosaikogenin f level at 50 mg/kg, po administered through gavage by LC-DAD-IT-TOF-MS analysis; set-up: dose 50 mg/kg, route oral; details: in vivo
[32] = system: Plasma; test: Drug metabolism in Sprague-Dawley rat plasma assessed as metabolite 3-keto-saikogenin f formation at 50 mg/kg, po administered through gavage by LC-DAD-IT-TOF-MS analysis; set-up: dose 50 mg/kg, route oral; details: in vivo
[33] = Drug excretion in Sprague-Dawley rat feces assessed as metabolite hydroxysaikosaponin a level at 15 mg/kg, iv by LC-DAD-IT-TOF-MS analysis; set-up: dose 15 mg/kg, route intravenous; details: in vivo
[34] = Drug excretion in Sprague-Dawley rat feces assessed as metabolite prosaikogenin f level at 15 mg/kg, iv by LC-DAD-IT-TOF-MS analysis; set-up: dose 15 mg/kg, route intravenous; details: in vivo
[35] = Drug excretion in Sprague-Dawley rat urine assessed as metabolite hydroxysaikosaponin a level at 50 mg/kg, po administered through gavage by LC-DAD-IT-TOF-MS analysis; set-up: dose 50 mg/kg, route oral; details: in vivo
[36] = Drug excretion in Sprague-Dawley rat urine assessed as metabolite hydroxysaikosaponin a level at 15 mg/kg, iv by LC-DAD-IT-TOF-MS analysis; set-up: dose 15 mg/kg, route intravenous; details: in vivo
[37] = Drug excretion in Sprague-Dawley rat urine assessed as metabolite 3-keto-saikogenin f level at 50 mg/kg, po administered through gavage by LC-DAD-IT-TOF-MS analysis; set-up: dose 50 mg/kg, route oral; details: in vivo
[38] = Drug excretion in Sprague-Dawley rat feces assessed as metabolite 3-keto-saikogenin f level at 50 mg/kg, po administered through gavage by LC-DAD-IT-TOF-MS analysis; set-up: dose 50 mg/kg, route oral; details: in vivo

Drug excretion [1]: metabolite_detected | Drug excretion [2]: metabolite_not_detected | Drug excretion [3]: metabolite_detected | Drug excretion [4]: metabolite_not_detected | Drug excretion [5]: metabolite_detected | Drug metabolism [6]: metabolite_not_detected | Drug excretion [7]: metabolite_detected | Drug excretion [8]: metabolite_not_detected | Drug excretion [9]: metabolite_detected | Drug excretion [10]: metabolite_detected | Drug metabolism [11]: metabolite_not_detected | Drug metabolism [12]: metabolite_detected | Drug excretion [13]: metabolite_detected | Retention_time [14]: 39.9 min | Drug uptake [15]: Active | Drug excretion [16]: metabolite_not_detected | Drug excretion [17]: metabolite_detected | Drug excretion [18]: metabolite_detected | Drug excretion [19]: metabolite_not_detected | Drug excretion [20]: metabolite_detected | Drug excretion [21]: metabolite_not_detected | Drug excretion [22]: metabolite_not_detected | Drug excretion [23]: metabolite_not_detected | Drug excretion [24]: metabolite_not_detected | Drug excretion [25]: metabolite_detected | Drug excretion [26]: metabolite_not_detected | Drug excretion [27]: metabolite_detected | Drug excretion [28]: metabolite_detected | Drug uptake [29]: Active | Drug metabolism [30]: metabolite_not_detected | Drug excretion [31]: metabolite_detected | Drug metabolism [32]: metabolite_not_detected | Drug excretion [33]: metabolite_not_detected | Drug excretion [34]: metabolite_detected | Drug excretion [35]: metabolite_not_detected | Drug excretion [36]: metabolite_not_detected | Drug excretion [37]: metabolite_detected | Drug excretion [38]: metabolite_detected
Compound: C[C@H]1O[C@@H](O[C@H]2CC[C@@]3(C)[C@@H](CC[C@]4(C)[C@@H]3C=C[C@]35OC[C@@]6(CCC(C)(C)C[C@H]63)[C@@H](O)C[C@]54C)[C@]2(C)CO)[C@H](O)[C@@H](O[C@@H]2O[C@H](CO)[C@@H](O)[C@H](O)[C@H]2O)[C@H]1O [SAIKOSAPONIN A]
